Molecular target: T1, Human TRPV3 (Homo sapiens, UniProt Q8NET8)
T1 construct: expressed in transfected cells; host or cells: CHO cells (selected with G-418)
T1 sequence (Q8NET8 1-790): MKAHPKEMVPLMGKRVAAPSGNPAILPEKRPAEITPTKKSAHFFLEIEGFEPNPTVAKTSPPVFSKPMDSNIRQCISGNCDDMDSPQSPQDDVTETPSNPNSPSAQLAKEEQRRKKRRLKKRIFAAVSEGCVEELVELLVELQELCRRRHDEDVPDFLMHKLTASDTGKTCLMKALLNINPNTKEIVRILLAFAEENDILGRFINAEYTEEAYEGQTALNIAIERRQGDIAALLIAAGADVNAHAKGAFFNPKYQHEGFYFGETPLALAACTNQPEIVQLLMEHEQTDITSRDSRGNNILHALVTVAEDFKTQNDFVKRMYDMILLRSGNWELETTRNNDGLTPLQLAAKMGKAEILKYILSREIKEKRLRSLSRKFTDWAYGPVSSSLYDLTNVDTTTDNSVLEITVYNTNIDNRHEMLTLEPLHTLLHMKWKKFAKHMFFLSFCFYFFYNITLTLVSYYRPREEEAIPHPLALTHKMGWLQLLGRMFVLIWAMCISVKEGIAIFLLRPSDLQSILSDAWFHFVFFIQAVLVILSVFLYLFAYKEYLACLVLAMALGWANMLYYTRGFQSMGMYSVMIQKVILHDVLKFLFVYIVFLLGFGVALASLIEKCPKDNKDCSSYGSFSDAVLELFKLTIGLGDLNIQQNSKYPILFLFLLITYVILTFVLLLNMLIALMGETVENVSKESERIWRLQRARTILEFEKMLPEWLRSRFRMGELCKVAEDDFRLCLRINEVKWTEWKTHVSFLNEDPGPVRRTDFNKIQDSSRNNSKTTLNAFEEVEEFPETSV
Assay: 45Calcium uptake assay: inhibition of 2-APB induced cellular uptake of radioactive calcium
Type: cell-based
Settings: human TRPV3 expressing CHO cells, 2-APB 500 μM; for inhibition at 1 µM: 1 μM test compound, read-out: Percentage Inhibition (1 μM); for inhibition at 10 µM: 10 μM test compound, read-out: Percentage Inhibition (10 μM); for IC50: class symbol
Source text: The illustrative examples of the present invention are screened for TRPV3 activity according to a modified procedure described in Tóth, A., Kedei, N., Wang, Y. and Blumberg, P. M. Life Sciences (2003), 73, 487-498. The screening of the compounds can be carried out by other methods and procedures known to a person skilled in the art. Such screening methods may be found in (a) Hu, H.-Z. et al. J. Biol. Chem. (2004), 279, 35741-35747; (b) Smith, G. D. et al. Nature (2002), 418, 186-190; (c) Peier, A. M. et al. Science (2002), 296, 2046-2049.
Screening for TRPV3 antagonist using the ^45Calcium uptake assay The inhibition of TRPV3 receptor activation was followed as inhibition of 2-aminoethoxydiphenylborate (2-APB) induced cellular uptake of radioactive calcium. Test compounds were dissolved in dimethyl sulfoxide (DMSO) to prepare 20 mM stock solution and then diluted using plain medium with DMEM/F-12 containing 1.8 mM CaCl2 to get desired concentration. Final concentration of DMSO in the reaction was 0.5% (v/v). Human TRPV3 expressing CHO cells were grown in DMEM/F-12 medium with 10% FBS, 1% penicillin-streptomycin solution, 400 μg/ml of G-418. Cells were seeded 24 h prior to the assay in 96 well plates so as to get ˜50,000 cells per well on the day of experiment. Cells were treated with test compounds for 10 minutes followed by addition of 2-APB at a final concentration of 500 μM and 5 μCi/ml^45Ca^+2 for 4 minutes. Cells were washed and lysed using buffer containing 1% Triton X-100, 0.1% deoxycholate and 0.1% SDS. Radioactivity in the lysate was measured in Packardt Top count after addition of liquid scintillant. Concentration response curves were plotted as a % of maximal response obtained in the absence of test antagonist. IC50 value was calculated from concentration response curve by nonlinear regression analysis using GraphPad PRISM software.
Percentage inhibition at concentrations of 1.0 μM and 10.0 μM are given in the table along with IC50 details for selected examples.

SMILES	inhibition at 1 µM [%]	inhibition at 10 µM [%]	IC50 [nM]
COc1cccc(/C=C/c2nc3ccccc3n2-c2cccs2)c1OCC1CC1 [Example 45, 2-[(E)-2-(2-Cylopropymethoxy-3-methoxyphenyl)]-1-(2-thienyl)-1H-benzimidazole]	43.4	83.8	–
COc1cccc(/C=C/c2nc3ccccc3n2Cc2ccc(C#N)cc2)c1OC1CCCC1 [Example 43, 4-({2-[(E)-2-(2-Cyclopentyloxy-3-methoxyphenyl)vinyl]-1H-benzimidazol-1-yl}methyl)benzonitrile]	88.8	97.5	100 to 500
CCCCCOc1c(/C=C/c2nc3cc(F)cc(F)c3n2-c2ccc(C#N)cn2)cccc1OC [Example 78, 6-{5,7-Difluoro-2-[(E)-2-(2-pentyloxy-3-methoxyphenyl)vinyl]-1H-benzimidazol-1-yl}nicotinonitrile]	92.7	96.8	50 to 100
COc1cccc(/C=C/c2nc3ccccc3n2-c2nc(C)c(C#N)s2)c1OC1CCCC1 [Example 49, 2-{2-[(E)-2-(2-Cyclopentyloxy-3-methoxyphenyl)vinyl]-1H-benzimidazol-1-yl}-4-methyl-1,3-thiazole-5-carbonitrile]	56.1	76.9	–
COc1cccc(/C=C/c2nc3ccccc3n2-c2ccc(C(F)(F)F)cn2)c1OC1CCCC1 [Example 27, 2-[(E)-2-(2-Cyclopentyloxy-3-methoxyphenyl)vinyl]-1-[5-(trifluoromethyl)pyridin-2-yl]-1H-benzimidazole]	41.8	94.7	–
CCCCOc1c(/C=C/c2nc3ccccc3n2-c2ccc(C#N)cc2)cccc1OC [Example 36, 4-{2-[(E)-2-(2-Butoxy-3-methoxyphenyl)vinyl]-1H-benzimidazol-1-yl}benzonitrile]	82.8	96	100 to 500
COc1cccc(/C=C/c2nc3ccccc3n2-c2ccc(C#N)cn2)c1OCC(C)C [Example 11, 6-(2-{(E)-2-[3-methoxy-2-(2-methylpropoxy)phenyl]ethenyl}-1H-benzimidazol-1-yl)pyridine-3-carbonitrile]	94.8	97.4	100 to 500
COc1cccc(/C=C/c2nc3ccccc3n2-c2ccc(C(F)(F)F)cc2)c1OC1CCCC1 [Example 35, 2-[(E)-2-(2-Cyclopentyloxy-3-methoxyphenyl)vinyl]-1-[4-(trifluoromethyl)phenyl]-1H-benzimidazole]	54.3	77.8	–
CCC(CC)Oc1c(/C=C/c2nc3ccccc3n2-c2ccc(C#N)cn2)cccc1OC [Example 10, 6-{2-[(E)-2-(2-(1-Ethylpropoxy)-3-methoxyphenyl)vinyl]-1H-benzimidazol-1-yl}nicotinonitrile]	96.6	99.1	100 to 500
COc1cccc(/C=C/c2nc3cc(Cl)c(C(F)(F)F)cc3n2-c2ccc(C#N)cn2)c1OC1CCCC1 [Example 71, 6-{5-Chloro-2-[(E)-2-(2-cyclopentyloxy-3-methoxyphenyl)vinyl]-6-(trifluoromethyl)-1H-benzimidazol-1-yl}nicotinonitrile]	53.7	79.4	–
CCCCCOc1c(/C=C/c2nc3cc(Cl)cnc3n2-c2ccc(C#N)cn2)cccc1OC(F)F [Example 101, 6-(6-Chloro-2-{(E)-2-[3-(difluoromethoxy)-2-pentyloxyphenyl]vinyl}-3H-imidazo[4,5-b]pyridin-3-yl)nicotinonitrile]	30.3	85.2	–
COc1cccc(/C=C/c2nc3ccccc3n2-c2ccc(C#N)cn2)c1OCc1ccccc1F [Example 14, 6-(2-{(E)-2-[2-(2-Fluorobenzyloxy)-3-methoxyphenyl]vinyl}-1H-benzimidazol-1-yl)nicotinonitrile]	93.2	97.7	100 to 500
CCC(CC)Oc1c(/C=C/c2nc3ccccc3n2-c2ncc(Br)cn2)cccc1OC [Example 22, 1-(5-Bromopyrimidin-2-yl)-2-{(E)-2-[2-(1-ethylpropoxy)-3-methoxyphenyl]vinyl}-1H-benzimidazole]	70.6	89.2	100 to 500

More lines, now with the values ahead:

inhibition at 1 µM [%]	inhibition at 10 µM [%]	IC50 [nM]	SMILES
97.6	98.8	50 to 100	COc1cccc(/C=C/c2nc3c(F)cc(F)cc3n2-c2ccc(C#N)cn2)c1OC1CCCC1 [Example 80, 6-{4,6-Difluoro-2-[(E)-2-(2-[cyclopentyloxy]-3-methoxyphenyl)vinyl]-1H-benzimidazol-1-yl}nicotinonitrile]
94.5	98	50 to 100	COc1cccc(/C=C/c2nc3cc(Cl)cnc3n2-c2ccc(C#N)cn2)c1OCC1CCC1 [Example 94, 6-(6-Chloro-2-{(E)-2-[2-(cyclobutylmethoxy)-3-methoxyphenyl]vinyl}-3H-imidazo[4,5-b]pyridin-3-yl)nicotinonitrile]
93.7	97.8	50 to 100	COc1cccc(/C=C/c2nc3cc(Cl)cnc3n2-c2ccc(C#N)cn2)c1OC1CCCC1 [Example 95, 6-{6-Chloro-2-[(E)-2-(2-(cyclopentyloxy)-3-methoxyphenyl)vinyl]-3H-imidazo[4,5-b]pyridin-3-yl}nicotinonitrile]
95.7	99.1	100 to 500	CCCCCOc1c(/C=C/c2nc3cccnc3n2-c2ccc(C#N)cn2)cccc1OC [Example 87, 6-{2-[(E)-2-(2-Pentyloxy-3-methoxyphenyl)vinyl]-3H-imidazo[4,5-b]pyridin-3-yl}nicotinonitrile]
92	95.9	100 to 500	COc1cccc(/C=C/c2nc3cc(C)c(C)cc3n2-c2ccc(C#N)cn2)c1OC1CCCC1 [Example 62, 6-{2-[(E)-2-(2-[Cyclopentyloxy]-3-methoxyphenyl)vinyl]-5,6-dimethyl-1H-benzimidazol-1-yl}nicotinonitrile]
96.2	98.1	50 to 100	COc1cccc(/C=C/c2nc3cc(F)c(Cl)cc3n2-c2ccc(C#N)cn2)c1OC1CCCC1 [Example 70, 6-{6-Chloro-2-[(E)-2-(2-[cyclopentyloxy]-3-methoxyphenyl)vinyl]-5-fluoro-1H-benzimidazol-1-yl}nicotinonitrile]
62.1	86.6	> 500	COc1cccc(/C=C/c2nc3ccccc3n2-c2ccc(Cl)cn2)c1OC1CCCC1 [Example 3, 1-(5-Chloropyridin-2-yl)-2-{(E)-2-[2-(cyclopentyloxy)-3-methoxyphenyl]vinyl}-1H-benzimidazole]
95.3	97.7	50 to 100	COc1cccc(/C=C/c2nc3ccc(Cl)cc3n2-c2ccc(C#N)cn2)c1OC1CCCC1 [Example 54, 6-{6-Chloro-2-[(E)-2-(2-cyclopentyloxy-3-methoxyphenyl)vinyl]-1H-benzimidazol-1-yl}nicotinonitrile]
95.3	99.7	100 to 500	COc1cccc(/C=C/c2nc3cccnc3n2-c2ccc(C#N)cn2)c1OC1CCCC1 [Example 91, 6-{2-[(E)-2-(2-[Cyclopentyloxy]-3-methoxyphenyl)vinyl]-3H-imidazo[4,5-b]pyridin-3-yl}nicotinonitrile]
